Measurements taken from US10906876B2, “Tetrahydroisoquinolines as selective NADPH oxidase 2 inhibitors” (University of Pittsburgh—Of the Commonwealth System of …, priority 2013, dated 2021).

Tests used:
[1] = tested on: human pulmonary artery endothelial cells (HPAEC); experiment: Superoxide production of HPAEC treated with high glucose; type: cell-based; conditions: 25 mM glucose 24 hr, 25 μM compound
Protocol: Cos-Nox2, Cos-Nox1, human fibroblasts were cultured in DMEM, 10% FBS-supplemented media, human pulmonary artery endothelial cells were cultured in EBM2media containing growth factors (Lonza) and rat neonatal cardiomyocytes were cultured in DMEM/F12 (50/50) media supplemented with 5% horse serum, 100 μM BrdU and Insulin-Transferrin-Selenium (ITS, Gibco).
Superoxide (O2^•−) production from cell homogenates was calculated from the initial linear rate (over 10 min) of SOD-inhibitable cytochrome c reduction quantified at 550 nm using the extinction coefficient of 21.1 mM-1 cm-1 (Biotek Synergy 4 Hybrid Multi-Mode Microplate Reader). The oxidase assay buffer consisted of 65 mM sodium phosphate buffer (pH 7.0), 1 mM EGTA, 10 μM FAD, 1 mM MgCl2, 2 mM NaN3 and 0.2 mM cytochrome C.
Compounds 11g and 11h subsequently were tested in parenchymal cell lines where more than one Nox could be present and activated. Human pulmonary artery endothelial cells (HPAEC) were treated with high glucose (25 mM) for 24 hr in the presence or absence of the compounds. […] Under these conditions both compounds 11g and 11h attenuated the high glucose-stimulated superoxide production (FIG. 9).

Nox2 = molecular target: T1, Nox2 (Homo sapiens, UniProt P04839); experiment: ROS production of transiently Nox2-transfected Cos cells treated with PMA; type: cell-based; conditions: 10 μM compound
T1 construct: expressed in transfected cells
T1 sequence (P04839 2-570 limits assumed): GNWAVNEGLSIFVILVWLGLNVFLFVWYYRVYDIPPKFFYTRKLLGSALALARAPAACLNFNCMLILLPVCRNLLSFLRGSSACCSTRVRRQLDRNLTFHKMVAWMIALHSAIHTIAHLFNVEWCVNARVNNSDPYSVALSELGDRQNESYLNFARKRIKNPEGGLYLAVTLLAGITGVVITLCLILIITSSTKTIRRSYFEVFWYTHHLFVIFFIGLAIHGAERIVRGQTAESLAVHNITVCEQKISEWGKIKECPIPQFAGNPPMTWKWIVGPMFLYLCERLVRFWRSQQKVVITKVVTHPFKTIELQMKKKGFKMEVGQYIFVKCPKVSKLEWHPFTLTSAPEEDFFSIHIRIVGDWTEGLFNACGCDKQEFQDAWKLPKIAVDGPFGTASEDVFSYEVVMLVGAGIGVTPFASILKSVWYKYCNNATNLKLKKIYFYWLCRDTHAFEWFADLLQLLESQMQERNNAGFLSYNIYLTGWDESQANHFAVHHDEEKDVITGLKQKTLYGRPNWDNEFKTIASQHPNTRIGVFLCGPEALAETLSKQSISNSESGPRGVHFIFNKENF
Protocol: Cell transfection was carried out using Lipofectamine LTX and Plus reagent (Invitrogen, Carlsbad, Calif., USA), according to the manufacturer's instructions. COS-22 cells were transiently co-transfected with pcDNA 3.1-hNox1, pCMVsport 6-hNOXA1 and pcDNA3.1-hNoxO1 (COS-Nox1/NOXO1/NOXA1 cells) or with pcDNA3.1/Hygro-hNox4 (COS-Nox4 cells). Cells were used 24 hr after transfection. Adherent cells were harvested by incubating with 0.05% trypsin/EDTA for 5 min at 37° C. Following addition of DMEM/10% FBS to neutralize the trypsin, the cells were pelleted by centrifugation at 1100×g for 5 min at 4° C. and used for the experiments.
Since p47^phox activation is important not only for Nox2 activity but also for Nox1 hybrid system present mainly in human endothelial cells, the effect of compounds 11g and 11h on ROS production of transiently Nox2-transfected (FIG. 13) or Nox1 hybrid system-transfected Cos cells (FIG. 14) treated with phorbol ester (PMA) was evaluated.

PMA-stimulated ROS production, Nox2-transfected Cos cells (Nox2) | SMILES | High glucose-stimulated superoxide production [1]
inhibited | C=C(C)CC1C2c3c(Br)cccc3C(CC2(C)C)N1CCCCC (racemic) [Compound 11g, (±)-(1S,4R,9S)-5-Bromo-3,3-dimethyl-9-(2-methylallyl-10-pentyl-1,2,3,4-tetrahydro-1,4-(epiminomethano)naphthalene] | attenuated
 | C=C(C)CC1C2c3c(Br)cccc3C(CC2(C)C)N1Cc1cccs1 (racemic) [Compound 11h, (±)-(1S,4R,9S)-5-Bromo-3,3-dimethyl-9-(2-methylallyl)-10-(thiophen-2-ylmethyl)-1,2,3,4-tetrahydro-1,4-(epiminomethano)naphthalene] | attenuated
